Patent US8916183B2, “Pesticidal compositions and processes related thereto” (priority 2012, dated 2014)

How the values were obtained:
Type in all cases: in vivo
[1] = tested on: Green Peach Aphid (GPA) (Myzus persicae); experiment: Bioassay on green peach aphid (GPA), foliar spray on cabbage seedlings; conditions: green peach aphid, 200 ppm, read-out: % Mortality GPA 200 ppm
Outline: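 Cabbage seedlings (2-3 true leaves), each infested a day earlier with 20-50 wingless adult and nymph GPA, were sprayed on both leaf sides to runoff, four pots per treatment. Corrected % control was calculated against solvent-check plants.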

[2] = tested on: Corn Earworm (CEW) (Helicoverpa zea); experiment: Bioassay on corn earworm (CEW), 128-well diet tray assay; conditions: corn earworm, 50 μg/cm^2; for mortality at 50 µg/cm2: Helicoverpa zea, read-out: % Mortality CEW 50 μg/cm^2
Outline: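 Activity was scored as percent larval mortality per well, averaged across eight wells and reported on a rating scale. Diet trays (128-well) were kept at 25° C with 14:10 light-dark for five to seven days.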

[3] = tested on: Beet Armyworm (BAW) (Spodoptera exigua); experiment: Bioassay on beet armyworm (BAW), 128-well diet tray assay; conditions: beet armyworm, 50 μg/cm^2; for mortality at 50 µg/cm2: Spodoptera exigua, read-out: % Mortality BAW 50 μg/cm^2

| SMILES | mortality at 200 ppm [1] [%] | % Mortality CEW 50 μg/cm^2 [2] | % Mortality BAW 50 μg/cm^2 [3] | mortality at 50 µg/cm2 [2] [%] | mortality at 50 µg/cm2 [3] [%] |
| --- | --- | --- | --- | --- | --- |
| COc1cc(C)c(/N=C(/N/N=C/c2ccc(-c3ncn(-c4ccc(OC(F)(F)F)cc4)n3)cc2)SCC(=O)O)c(C)c1.[Na+] [Compound 68C, 2-(((Z)-((4-methoxy-2,6-dimethylphenyl)imino)((E)-2-(4-(1-(4-(trifluoromethoxy)phenyl)-1H-1,2,4-triazol-3-yl)benzylidene)hydrazinyl)methyl)-thio)acetic acid sodium salt] | 0 to 80 | A (50-100) | A (50-100) |  |  |
| O=C1CS/C(=N\N=C\c2ccc(-c3ncn(-c4ccc(OC(F)(F)F)cc4)n3)cc2)N1c1c(Cl)cccc1Cl [Compound 70C] | 0 |  |  | 50 to 100 | 50 to 100 |
| Cc1cccc(C)c1N1C(=O)CS/C1=N\N=C\c1ccc(-c2ncn(-c3ccc(OC(F)(F)F)cc3)n2)cc1 [Compound 71C] | 0 |  |  | 50 to 100 | 50 to 100 |
| Cc1cc(C)c(N2C(=O)CS/C2=N\N=C\c2ccc(-c3ncn(-c4ccc(OC(F)(F)F)cc4)n3)cc2)c(C)c1 [Compound 72C] | 0 to 80 |  |  | 50 to 100 | 50 to 100 |
| CCN(CC)c1ccc(-c2cs/c(=N\N=Cc3ccc(-c4ncn(-c5ccc(OC(F)(F)F)cc5)n4)cc3)n2-c2c(C)cccc2C)cc1 [Compound 74C] | 0 |  |  | 50 to 100 | 50 to 100 |
| Cc1cccc(C)c1-n1c(-c2nccs2)cs/c1=N\N=Cc1ccc(-c2ncn(-c3ccc(OC(F)(F)F)cc3)n2)cc1 [Compound 75C] | 0 to 80 |  |  | 50 to 100 | 50 to 100 |
| Cc1cccc(C)c1-n1c(-c2cc(-c3ccc(Cl)cc3)no2)cs/c1=N\N=C\c1ccc(-c2ncn(-c3ccc(OC(F)(F)F)cc3)n2)cc1 [Compound 76C] | 0 to 80 |  |  | 50 to 100 | 50 to 100 |
| Cc1cccc(C)c1-n1c(-c2ccc(C(=O)O)cc2)cs/c1=N\N=Cc1ccc(-c2ncn(-c3ccc(OC(F)(F)F)cc3)n2)cc1 [Compound 77C] | 0 to 80 |  |  | 50 to 100 | 50 to 100 |
| Cc1cccc(C)c1-n1c(-c2ccc(OC(F)(F)F)cc2)cs/c1=N\N=Cc1ccc(-c2ncn(-c3ccc(OC(F)(F)F)cc3)n2)cc1 [Compound 78C] | 0 to 80 |  |  | 50 to 100 | 50 to 100 |
| Cc1cccc(C)c1-n1c(-c2ccc(C(F)(F)F)cc2)cs/c1=N\N=Cc1ccc(-c2ncn(-c3ccc(OC(F)(F)F)cc3)n2)cc1 [Compound 79C] | 0 to 80 |  |  | 50 to 100 | 50 to 100 |
| COc1cc(C)c(-n2c(C(=O)O)cs/c2=N\N=Cc2ccc(-c3ncn(-c4ccc(OC(F)(F)F)cc4)n3)cc2)c(C)c1 [Compound 80C] | 0 |  |  | 50 to 100 | 50 to 100 |
| Cc1cccc(C)c1/N=C1\SCC(=O)N1/N=C/c1ccc(-c2ncn(-c3ccc(OC(F)(F)F)cc3)n2)cc1 [Compound 81C] | 0 |  |  | 50 to 100 | 50 to 100 |
| CC1S/C(=N\N=C\c2ccc(-c3ncn(-c4ccc(OC(F)(F)F)cc4)n3)cc2)N(c2ccccc2C(C)C)C1=O (stereo not drawn) [Compound 88C] | 0 to 80 |  |  | 50 to 100 | 50 to 100 |
| O=C1CS/C(=N\N=C\c2ccc(-c3ncn(-c4ccc(OC(F)(F)F)cc4)n3)cc2)N1c1c(F)cccc1F [Compound 89C] | 0 |  |  | 50 to 100 | 50 to 100 |
| COc1ccccc1N1C(=O)CS/C1=N\N=C\c1ccc(-c2ncn(-c3ccc(OC(F)(F)F)cc3)n2)cc1 [Compound 92C] | 0 to 80 |  |  | 50 to 100 | 50 to 100 |
| Cc1cccc(Cl)c1N1C(=O)CS/C1=N\N=C\c1ccc(-c2ncn(-c3ccc(OC(F)(F)F)cc3)n2)cc1 [Compound 93C] | 0 |  |  | 50 to 100 | 50 to 100 |
| CCc1ccccc1N1C(=O)CS/C1=N\N=C\c1ccc(-c2ncn(-c3ccc(OC(F)(F)F)cc3)n2)cc1 [Compound 94C] | 0 |  |  | 50 to 100 | 50 to 100 |
| O=C1CS/C(=N\N=C\c2ccc(-c3ncn(-c4ccc(OC(F)(F)F)cc4)n3)cc2)N1c1c(F)cccc1Cl [Compound 95C] | 0 to 80 |  |  | 50 to 100 | 50 to 100 |
| O=C1CS/C(=N\N=C\c2ccc(-c3ncn(-c4ccc(OC(F)(F)F)cc4)n3)cc2)N1c1ccccc1-c1ccccc1 [Compound 96C] | 0 to 80 |  |  | 50 to 100 | 50 to 100 |
| CCC(C)c1ccccc1N1C(=O)CS/C1=N\N=C\c1ccc(-c2ncn(-c3ccc(OC(F)(F)F)cc3)n2)cc1 (stereo not drawn) [Compound 108C] | 0 |  |  | 50 to 100 | 50 to 100 |
| CCc1cccc(C)c1N1C(=O)CS/C1=N\N=C\c1ccc(-c2ncn(-c3ccc(OC(F)(F)F)cc3)n2)cc1 [Compound 111C] | 0 to 80 |  |  | 50 to 100 | 50 to 100 |

| SMILES | mortality at 200 ppm [1] [%] | % Mortality CEW 50 μg/cm^2 [2] | % Mortality BAW 50 μg/cm^2 [3] | mortality at 50 µg/cm2 [2] [%] | mortality at 50 µg/cm2 [3] [%] |
| --- | --- | --- | --- | --- | --- |
| O=C1CS/C(=N\N=C\c2ccc(-c3ncn(-c4ccc(OC(F)(F)F)cc4)n3)cc2)N1c1ccccc1C1CC1 [Compound 112C] | 0 to 80 |  |  | 50 to 100 | 50 to 100 |
| Cc1cccnc1N1C(=O)CS/C1=N\N=C\c1ccc(-c2ncn(-c3ccc(OC(F)(F)F)cc3)n2)cc1 [Compound 117C] | 0 |  |  | 50 to 100 | 50 to 100 |
| Cc1cnccc1N1C(=O)CS/C1=N\N=C\c1ccc(-c2ncn(-c3ccc(OC(F)(F)F)cc3)n2)cc1 [Compound 118C] | 0 |  |  | 50 to 100 | 50 to 100 |
| CC(C)Cc1ccccc1N1C(=O)CS/C1=N\N=C\c1ccc(-c2ncn(-c3ccc(OC(F)(F)F)cc3)n2)cc1 [Compound 119C] | 0 |  |  | 50 to 100 | 50 to 100 |
| CC(C)=Cc1ccccc1N1C(=O)CS/C1=N\N=C\c1ccc(-c2ncn(-c3ccc(OC(F)(F)F)cc3)n2)cc1 [Compound 121C] | 0 to 80 |  |  | 50 to 100 | 50 to 100 |
| CC1S/C(=N\N=C\c2ccc(-c3ncn(-c4ccc(OC(F)(F)F)cc4)n3)cc2)N(c2c(F)cccc2F)C1=O (stereo not drawn) [Compound 131C] | 0 |  |  | 50 to 100 | 50 to 100 |
| CC(C)c1ccccc1N1CCS/C1=N\N=C\c1ccc(-c2ncn(-c3ccc(OC(F)(F)F)cc3)n2)cc1 [Compound 132C] | 0 to 80 |  |  | 50 to 100 | 50 to 100 |
| CCc1ccccc1N1CCS/C1=N\N=C\c1ccc(-c2ncn(-c3ccc(OC(F)(F)F)cc3)n2)cc1 [Compound 133C] | 0 to 80 |  |  | 50 to 100 | 50 to 100 |
| CCC(C)c1ccccc1N1CCS/C1=N\N=C\c1ccc(-c2ncn(-c3ccc(OC(F)(F)F)cc3)n2)cc1 (stereo not drawn) [Compound 135C] | 0 |  |  | 50 to 100 | 50 to 100 |
| CCc1cccc(C)c1N1CCS/C1=N\N=C\c1ccc(-c2ncn(-c3ccc(OC(F)(F)F)cc3)n2)cc1 [Compound 136C] | 0 |  |  | 50 to 100 | 50 to 100 |
| COc1ccc(N2CCS/C2=N\N=C\c2ccc(-c3ncn(-c4ccc(OC(F)(F)F)cc4)n3)cc2)c(C)c1 [Compound 137C] | 0 |  |  | 50 to 100 | 50 to 100 |
| COc1cc(C)c(N2CCS/C2=N\N=C\c2ccc(-c3ncn(-c4ccc(OC(F)(F)F)cc4)n3)cc2)c(C)c1 [Compound 138C] | 0 to 80 |  |  | 50 to 100 | 50 to 100 |
| Cc1cc(C)c(N2CCS/C2=N\N=C\c2ccc(-c3ncn(-c4ccc(OC(F)(F)F)cc4)n3)cc2)c(C)c1 [Compound 139C] | 0 to 80 |  |  | 50 to 100 | 50 to 100 |
| COc1ccccc1N1CCS/C1=N\N=C\c1ccc(-c2ncn(-c3ccc(OC(F)(F)F)cc3)n2)cc1 [Compound 140C] | 0 to 80 |  |  | 50 to 100 | 50 to 100 |
| Cc1ccccc1N1CCS/C1=N\N=C\c1ccc(-c2ncn(-c3ccc(OC(F)(F)F)cc3)n2)cc1 [Compound 141C] | 0 |  |  | 50 to 100 | 50 to 100 |
| Cc1cccc(C)c1N1CCS/C1=N\N=C\c1ccc(-c2ncn(-c3ccc(OC(F)(F)F)cc3)n2)cc1 [Compound 142C] | 0 |  |  | 50 to 100 | 50 to 100 |
| FC(F)(F)Oc1ccc(-n2cnc(-c3ccc(/C=N/N=C4\SCCN4c4ccccc4C4CC4)cc3)n2)cc1 [Compound 145C] | 0 to 80 |  |  | 50 to 100 | 50 to 100 |
| CCOc1ccccc1N1CCS/C1=N\N=C\c1ccc(-c2ncn(-c3ccc(OC(F)(F)F)cc3)n2)cc1 [Compound 146C] | 0 to 80 |  |  | 50 to 100 | 50 to 100 |
| COc1cccc(N2CCS/C2=N\N=C\c2ccc(-c3ncn(-c4ccc(OC(F)(F)F)cc4)n3)cc2)c1 [Compound 147C] | 0 to 80 |  |  | 50 to 100 | 50 to 100 |
| FC(F)(F)Oc1ccc(-n2cnc(-c3ccc(/C=N/N=C4\SCCN4c4c(Cl)cccc4C(F)(F)F)cc3)n2)cc1 [Compound 149C] | 0 |  |  | 50 to 100 | 50 to 100 |
